This is an account of results in patent publication US9115144B2, “Fused heterocyclic derivative and pharmaceutical use thereof” (KISSEI PHARMACEUTICAL CO., LTD., priority 2011, dated 2015).

SMILES strings stand for the structures.

Xanthine oxidase (from bovine milk, Sigma), sequence (P80457 whole entry): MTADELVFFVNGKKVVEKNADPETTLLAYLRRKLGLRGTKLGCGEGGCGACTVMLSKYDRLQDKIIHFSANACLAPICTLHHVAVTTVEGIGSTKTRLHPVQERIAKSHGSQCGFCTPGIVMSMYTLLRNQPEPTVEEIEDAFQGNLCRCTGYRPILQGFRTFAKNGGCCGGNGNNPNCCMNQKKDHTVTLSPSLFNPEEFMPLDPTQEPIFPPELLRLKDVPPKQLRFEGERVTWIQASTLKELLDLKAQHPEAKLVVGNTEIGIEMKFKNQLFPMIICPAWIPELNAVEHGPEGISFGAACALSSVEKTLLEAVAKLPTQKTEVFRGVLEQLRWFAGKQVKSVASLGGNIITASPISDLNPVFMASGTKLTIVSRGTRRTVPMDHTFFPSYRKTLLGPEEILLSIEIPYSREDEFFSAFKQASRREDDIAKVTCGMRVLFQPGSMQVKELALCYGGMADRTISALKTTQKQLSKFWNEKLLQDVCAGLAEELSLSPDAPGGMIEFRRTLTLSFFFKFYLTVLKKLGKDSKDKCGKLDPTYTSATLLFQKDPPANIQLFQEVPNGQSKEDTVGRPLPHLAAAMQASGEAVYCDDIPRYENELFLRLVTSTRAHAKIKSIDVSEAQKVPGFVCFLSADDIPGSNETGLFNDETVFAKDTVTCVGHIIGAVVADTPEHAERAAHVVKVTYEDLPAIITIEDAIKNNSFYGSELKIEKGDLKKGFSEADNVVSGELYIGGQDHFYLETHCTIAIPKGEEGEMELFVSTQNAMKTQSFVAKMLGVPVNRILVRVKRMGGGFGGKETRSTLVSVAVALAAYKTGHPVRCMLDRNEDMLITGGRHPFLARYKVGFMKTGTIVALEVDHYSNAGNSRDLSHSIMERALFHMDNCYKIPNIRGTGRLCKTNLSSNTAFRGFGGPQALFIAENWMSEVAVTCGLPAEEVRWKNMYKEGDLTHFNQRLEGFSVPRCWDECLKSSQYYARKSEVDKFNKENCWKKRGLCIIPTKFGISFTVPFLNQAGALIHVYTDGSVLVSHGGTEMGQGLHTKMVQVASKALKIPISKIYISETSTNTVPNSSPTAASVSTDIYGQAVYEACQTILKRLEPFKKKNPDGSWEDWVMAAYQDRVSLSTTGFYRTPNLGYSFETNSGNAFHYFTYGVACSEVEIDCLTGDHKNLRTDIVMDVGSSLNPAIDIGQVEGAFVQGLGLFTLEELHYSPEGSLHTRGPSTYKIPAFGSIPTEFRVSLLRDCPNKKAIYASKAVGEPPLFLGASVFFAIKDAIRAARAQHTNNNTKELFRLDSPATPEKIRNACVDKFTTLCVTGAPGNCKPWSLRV
human URAT1, sequence (Q96S37 whole entry): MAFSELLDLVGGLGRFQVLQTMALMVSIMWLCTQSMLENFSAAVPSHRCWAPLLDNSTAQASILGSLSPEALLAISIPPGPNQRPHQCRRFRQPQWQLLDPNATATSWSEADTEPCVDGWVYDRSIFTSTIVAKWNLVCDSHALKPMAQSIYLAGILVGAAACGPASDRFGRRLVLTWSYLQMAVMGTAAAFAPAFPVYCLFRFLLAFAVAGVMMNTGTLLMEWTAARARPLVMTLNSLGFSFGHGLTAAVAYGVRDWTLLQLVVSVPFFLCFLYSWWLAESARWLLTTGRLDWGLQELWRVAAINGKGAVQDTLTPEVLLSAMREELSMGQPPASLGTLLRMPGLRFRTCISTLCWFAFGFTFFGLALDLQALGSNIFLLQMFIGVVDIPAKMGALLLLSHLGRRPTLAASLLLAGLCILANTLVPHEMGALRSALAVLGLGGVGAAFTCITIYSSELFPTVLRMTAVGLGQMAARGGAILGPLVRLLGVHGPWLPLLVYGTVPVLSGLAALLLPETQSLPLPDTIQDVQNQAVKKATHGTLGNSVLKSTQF

In one experiment the target is Xanthine oxidase (from bovine milk, Sigma) (Bos taurus (Bovine), UniProt P80457). In words: Xanthine oxidase inhibitory activity. The class given is biochemical. The settings on record: xanthine 200 μM added at 100 μL/well, 10 minutes at room temperature, absorbance at 290 nm. The method, then:
Xanthine Oxidase Inhibitory Activity
(1) Preparation of Test Compounds
Test compounds were dissolved in dimethyl sulfoxide (DMSO) (manufactured by Wako pure chemical) at 40 mM concentration and then diluted to intended concentrations with phosphate-buffered saline (PBS).
(2) Method for Measurement
Xanthine oxidase (from bovine milk, Sigma) was prepared with phosphate-buffered saline (PBS) at 0.02 units/mL, and then the solution was added to 96 well plates at 50 μL/well. In addition, test compounds diluted with PBS were added at 50 μL/well. Xanthine (manufactured by Wako pure chemical) at 200 μM prepared with PBS was added at 100 μL/well, and the reaction was conducted for 10 minutes at room temperature. Absorbance at 290 nm was measured by using a microplate reader SpectraMax Plus 384 (manufactured by Molecular device). The absorbance under a condition without xanthine is 0%, and control without test compounds is 100%. Fifty % inhibitory concentration of a test compounds (IC50) was calculated (Table 5). “Ex. No.” in the table indicates Example number.
The term IC50 denotes the point on the concentration scale where inhibition reaches its midpoint. Low values mean greater potency in that assay, high ones weaker potency in that assay. `Cc1cc2c(s1)c(C#N)cn2-c1ccc(C(=O)O)c(O)c1` [Example 1, 4-(6-Cyano-2-methyl-thieno[3,2-b]pyrrol-4-yl)-2-hydroxybenzoic acid] had an IC50 of 13 nM.
The same measure, in the same setting: the value for `N#Cc1cn(-c2ccc(C(=O)O)c(O)c2)c2ccsc12` [Example 5, 4-(6-Cyano-thieno[3,2-b]pyrrol-4-yl)-2-hydroxybenzoic acid] was 10 nM.
Same read-out and setting: the value for `N#Cc1cn(-c2ccc(C(=O)O)c(O)c2)c2cscc12` [Example 7] was 10 nM.
The same measure, in the same setting: the value for `N#Cc1cn(-c2ccc(C(=O)O)c(O)c2)c2sc(Br)cc12` [Example 8] was 14 nM; that for `N#Cc1cn(-c2ccc(C(=O)O)c(O)c2)c2sccc12` [Example 9] was 13 nM.

In the next experiment the target is human URAT1 (Homo sapiens (Human), UniProt Q96S37). In words: Inhibitory activity of uric acid transport with human URAT1 expressing cells. The class given is cell-based. Conditions: 10 μM test compound; URAT1-expressing HEK293 cells; 14C uric acid 50 μM, 2 minutes at 37° C.; read-out: Percent inhibition of uric acid uptake. The method, then:
Inhibitory Activity of Uric Acid Transport with Human URAT1 Expressing Cells
(1) Cells Used in the Test
URAT1-expressing HEK293 cells (HEK293 cells transfected with vector containing human URAT1 cDNA) and control cells (HEK293 cells transfected with vector alone) were used.
URAT1-expressing cells and control cells were seeded in collagen I-coated 24-well plates (manufactured by Becton, Dickinson and Company) at 1 to 4×10^5 cells/well, and cultured in CO2 incubator (37° C., CO2: 5%) for 1 to 3 days, and then the following measurement of uric acid transport was conducted. […]
After the medium was removed from the plates in which cells were seeded, and 1 mL of HBSS was added to the cells. […] The radioactivity was measured by means of a liquid scintillation counter. […]
Protein concentration in the cell lysates was determined by BCA Protein Assay Kit (manufactured by Pierce) and then amount of protein (mg/well) was calculated. […]
Uric acid uptake activity in each well was calculated by the following formula. Uric acid uptake activity (p mol/mg protein)=radioactivity (dpm/well)/[amount of protein (mg/well)×concentration of radioactivity in HBSS containing ^14C uric acid (dpm/p mol)]
Percent inhibition was calculated according to the following formula. […]
One may read the inhibition as the percentage by which the read-out fell short of the control. In the case of `N#Cc1cn(-c2ccc(C(=O)O)c(O)c2)c2sccc12` [Example 9], the inhibition at 10 µM was ≥ 50%.
